Measurements reported in patent publication US10212934B2, “Pesticidal compositions” (BASF AGRO B.V., priority 2014, dated 2019).
Read-outs that look alike come from different tables or passages of the source.

Experiments:
Type in all cases: cell-based
Conditions in all cases: 7 days after inoculation
Botrytis cinerea = experiment: M2 microtiterplate test, grey mold Botrytis cinerea (Botrci)
Leptosphaeria nodorum = experiment: M6 microtiter test, wheat leaf spots caused by Leptosphaeria nodorum (Leptno)
Pyricularia oryzae = system: Pyricularia oryzae
Phytophthora infestans = system: Phytophthora infestans
Septoria tritici = experiment: M4 microtiter test, leaf blotch on wheat caused by Septoria tritici (Septtr)
Alternaria solani = experiment: M5 microtiter test, early blight caused by Alternaria solani (Alteso)

In the case of Cc1cc(C(F)(F)F)nn1CC(=O)N1CCC(c2nc(C3=NOC(c4c(F)cccc4F)C3)cs2)CC1 (racemic) [Oxathiapiprolin (II-1), 1-(4-{4-[(5 RS)-5-(2,6-difluorophenyl)-4,5-dihydro-1,2-oxazol-3-yl]-1,3-thiazol-2-yl}-1-piperidyl)-2-[5-methyl-3-(trifluoromethyl)-1H-pyrazol-1-yl]ethanone], the Observed efficacy (Botrytis cinerea; 16 ppm) is reported as 4% and the Observed efficacy (Botrytis cinerea; 63 ppm) is reported as 23%.
Work on CC(c1ccc(C(F)(F)F)nc1)S(C)(=O)=NC#N (centres unmarked) [Sulfoxaflor (II-3), [methyl(oxo){1-[6-(trifluoromethyl)-3-pyridyl]ethyl}-Λ^6-sulfanylidene]cyanamide] yielded an Observed efficacy (Leptosphaeria nodorum; 16 ppm (commercial finished formulation diluted with water)) of 0%.
In the case of CNC(=O)Oc1cc(C)c(SC)c(C)c1 [Methiocarb (II-4), 4-methylthio-3,5-xylyl methylcarbamate], the Observed efficacy (Pyricularia oryzae; 63 ppm) is reported as 36%, the Observed efficacy (Phytophthora infestans; 63 ppm) is reported as 51% and the Observed efficacy (Septoria tritici; 0.063 ppm) is reported as 6%.
CC(C)(C)C(O)C(Oc1ccc(Cl)cc1)n1cncn1 (centres unmarked) [Triadimenol (II-2), (1 RS,2 RS;1 RS,2 SR)-1-(4-chlorophenoxy)-3,3-dimethyl-1-(1H-1,2,4-triazol-1-yl)butan-2-ol] showed an Observed efficacy (Botrytis cinerea; 4 ppm) of 39%.
Compound O=c1[c-](-c2cccc(C(F)(F)F)c2)c(=O)[n+](Cc2cncnc2)c2ccccn12 [Triflumezopyrim (II-7), 3,4-dihydro-2,4-dioxo-1-(pyrimidin-5-ylmethyl)-3-(α,α,α-trifluoro-m-tolyl)-2H-pyrido[1,2-a]pyrimidin-1-ium-3-ide] has an Observed efficacy (Alternaria solani; 0.25 ppm) of 36%.
For CC(O)(Cn1cncn1)c1ccc(Oc2ccc(Cl)cc2)cc1C(F)(F)F (centres unmarked) [I-3, 2-[4-(4-chlorophenoxy)-2-(trifluoromethyl)phenyl]-1-(1,2,4-triazol-1-yl)propan-2-ol], the Observed efficacy (Alternaria solani; 0.001 ppm) was 9%, the Observed efficacy (Pyricularia oryzae; 0.25 ppm) was 10% and the Observed efficacy (Phytophthora infestans; 0.063 ppm) was 12%. It also gave an Observed efficacy (Septoria tritici; 0.00025 ppm) of 28%, an Observed efficacy (Botrytis cinerea; 0.063 ppm) of 42% and an Observed efficacy (Leptosphaeria nodorum; 0.016 ppm) of 35%.
